Laboratory results published in US20260232682A1, “GSPT1 DEGRADER COMPOUNDS” (Captor Therapeutics S.A., priority 2023, published 2026).

Key:
[1] = molecular target: [CK1α]-[compound]-[CRBN/DDB1] ternary complex (Homo sapiens, UniProt P48729+Q96SW2); experiment: AlphaLISA assay for off-target recruitment detection, CK1α; type: binding; conditions: 1 μM compound; normalized to FPFT-2216; read-out: Normalized ternary complex response, CK1α
Method in brief: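 Neo-substrate with 40 μg/ml donor beads and 200 nM 6×His-CRBN/DDB1 with 40 μg/ml anti-His acceptor beads were each prepared in PBS pH 7.4 with Tween-20 and 1 mM DTT, preincubated 30 min at RT, then mixed. Compounds at 2% DMSO were incubated 30 min at 25 °C, read at 680/615 nm, and normalised between DMSO background and reference glue maximum.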

[2] = molecular target: T1, GSPT1-HiBiT protein in GSPT1-HiBiT HEK293 cells (Homo sapiens, UniProt P15170+Q96SW2); experiment: GSPT1 degradation assay using HiBiT system (Nano-Glo HiBiT lytic assay); type: cell-based; conditions: 6 hours treatment; for DC50: read-out: HiBiT lytic assay Geomean absolute DC50
T1 construct: endogenous in cells; host or cells: HEK293 (CRISPR/Cas9 knock-in of HiBiT at the GSPT1 locus)
T1 sequence (P15170 whole entry): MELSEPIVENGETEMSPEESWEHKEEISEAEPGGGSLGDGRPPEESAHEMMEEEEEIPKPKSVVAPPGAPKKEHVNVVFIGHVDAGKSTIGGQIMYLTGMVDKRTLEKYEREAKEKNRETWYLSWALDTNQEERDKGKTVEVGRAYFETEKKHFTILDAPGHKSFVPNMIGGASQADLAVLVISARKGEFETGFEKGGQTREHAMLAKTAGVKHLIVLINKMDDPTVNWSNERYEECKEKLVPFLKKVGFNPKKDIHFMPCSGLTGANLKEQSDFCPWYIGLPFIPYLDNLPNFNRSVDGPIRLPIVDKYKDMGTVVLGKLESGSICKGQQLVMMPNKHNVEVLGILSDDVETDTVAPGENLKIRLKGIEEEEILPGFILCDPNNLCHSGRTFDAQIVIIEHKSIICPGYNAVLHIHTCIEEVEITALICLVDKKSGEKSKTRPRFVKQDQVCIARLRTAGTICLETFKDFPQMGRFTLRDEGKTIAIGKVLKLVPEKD
T1 sequence (Q96SW2 whole entry): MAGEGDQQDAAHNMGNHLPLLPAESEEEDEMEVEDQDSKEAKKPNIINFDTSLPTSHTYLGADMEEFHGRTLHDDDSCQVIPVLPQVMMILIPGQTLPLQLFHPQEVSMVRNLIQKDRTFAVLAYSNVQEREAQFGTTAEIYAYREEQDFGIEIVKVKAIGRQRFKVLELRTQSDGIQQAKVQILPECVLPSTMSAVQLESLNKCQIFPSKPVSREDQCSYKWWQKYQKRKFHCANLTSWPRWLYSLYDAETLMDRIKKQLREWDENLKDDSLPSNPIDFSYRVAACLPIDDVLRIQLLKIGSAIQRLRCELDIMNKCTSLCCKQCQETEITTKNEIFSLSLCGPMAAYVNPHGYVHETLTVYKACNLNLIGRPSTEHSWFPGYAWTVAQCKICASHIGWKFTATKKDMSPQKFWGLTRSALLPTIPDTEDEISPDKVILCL
T1 sequence (Q16531 whole entry partner): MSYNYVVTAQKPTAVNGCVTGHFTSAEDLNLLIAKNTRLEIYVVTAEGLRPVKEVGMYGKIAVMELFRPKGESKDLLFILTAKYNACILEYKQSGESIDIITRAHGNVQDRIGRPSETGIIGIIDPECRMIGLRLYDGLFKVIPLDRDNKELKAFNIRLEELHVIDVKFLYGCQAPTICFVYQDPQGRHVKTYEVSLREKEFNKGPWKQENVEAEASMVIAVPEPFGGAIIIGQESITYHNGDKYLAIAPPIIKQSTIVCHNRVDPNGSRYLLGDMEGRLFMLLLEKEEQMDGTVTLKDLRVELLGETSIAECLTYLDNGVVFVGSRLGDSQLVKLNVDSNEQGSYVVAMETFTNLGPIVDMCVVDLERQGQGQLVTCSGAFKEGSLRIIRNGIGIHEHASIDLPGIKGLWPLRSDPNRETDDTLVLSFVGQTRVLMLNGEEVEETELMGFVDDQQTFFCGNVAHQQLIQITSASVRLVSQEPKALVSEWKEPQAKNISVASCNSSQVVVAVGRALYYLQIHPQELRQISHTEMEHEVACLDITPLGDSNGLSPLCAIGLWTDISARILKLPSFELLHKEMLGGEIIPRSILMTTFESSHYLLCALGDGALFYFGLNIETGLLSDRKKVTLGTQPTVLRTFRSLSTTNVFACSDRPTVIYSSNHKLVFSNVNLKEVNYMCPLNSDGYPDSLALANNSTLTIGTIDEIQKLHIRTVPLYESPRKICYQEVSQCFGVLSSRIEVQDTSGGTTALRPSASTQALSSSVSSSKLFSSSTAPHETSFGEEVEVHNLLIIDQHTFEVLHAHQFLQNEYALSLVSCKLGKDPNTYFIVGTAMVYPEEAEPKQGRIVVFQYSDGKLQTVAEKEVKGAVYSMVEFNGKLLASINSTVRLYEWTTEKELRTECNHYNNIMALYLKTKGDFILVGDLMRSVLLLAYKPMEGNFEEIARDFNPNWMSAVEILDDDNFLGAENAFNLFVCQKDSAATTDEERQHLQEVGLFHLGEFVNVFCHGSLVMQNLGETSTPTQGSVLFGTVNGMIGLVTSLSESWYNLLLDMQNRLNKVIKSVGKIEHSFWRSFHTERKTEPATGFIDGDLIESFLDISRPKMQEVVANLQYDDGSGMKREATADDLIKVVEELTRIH
Method in brief: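 CRISPR-engineered HEK293 cells expressing endogenous C-terminally HiBiT-tagged GSPT1, seeded at 2×10^3/well overnight, then treated 6 h at 37 °C with 12-point titrations (10 μM to 0.03 nM, 0.25% DMSO). Remaining GSPT1 measured by Nano-Glo HiBiT lytic luminescence. DC50 and Dmax from non-linear regression of DMSO-normalized RLU.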

[3] = molecular target: [GSPT1]-[compound of formula (I)]-[CRBN/DDB1] complex (Homo sapiens, UniProt P15170+Q96SW2); experiment: HTRF ternary complex assay (GSPT1); type: binding; conditions: read-out: HTRF ternary complex Average pEC50 by molecule (converted)
[GSPT1]-[compound of formula (I)]-[CRBN/DDB1] complex, sequence (P15170 whole entry): as the sequence (P15170 whole entry) above
[GSPT1]-[compound of formula (I)]-[CRBN/DDB1] complex, sequence (Q96SW2 whole entry): as the sequence (Q96SW2 whole entry) above
[GSPT1]-[compound of formula (I)]-[CRBN/DDB1] complex, sequence (Q16531 whole entry partner): as the sequence (Q16531 whole entry partner) above
Method in brief: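 Compounds in dose-response were incubated 180 min at 25 °C with 48 nM GSPT1 and 52.8 nM 6×His-CRBN/DDB1, plus Streptavidin-Eu cryptate and anti-6×His-d2, in buffer with 1 mM DTT and 0.5% DMSO. TR-FRET (665/620) was normalized to DMSO background and fitted with a Hill slope model for EC50/pEC50.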

[CK1α]-[compound]-[CRBN/DDB1] ternary complex, sequence (P48729 whole entry): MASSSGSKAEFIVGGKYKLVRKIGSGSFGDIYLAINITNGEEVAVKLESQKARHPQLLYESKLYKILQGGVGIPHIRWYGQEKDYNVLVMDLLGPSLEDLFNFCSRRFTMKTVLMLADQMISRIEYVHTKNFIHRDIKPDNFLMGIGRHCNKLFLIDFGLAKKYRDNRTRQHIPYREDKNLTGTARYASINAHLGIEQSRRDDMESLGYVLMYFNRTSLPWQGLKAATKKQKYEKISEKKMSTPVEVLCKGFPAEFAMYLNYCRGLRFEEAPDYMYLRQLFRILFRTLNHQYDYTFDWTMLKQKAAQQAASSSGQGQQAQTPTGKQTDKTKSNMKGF
[CK1α]-[compound]-[CRBN/DDB1] ternary complex, sequence (Q96SW2 whole entry): as the sequence (Q96SW2 whole entry) above
[CK1α]-[compound]-[CRBN/DDB1] ternary complex, sequence (Q16531 whole entry partner): as the sequence (Q16531 whole entry partner) above

activation at 1 µM [1] [%]	Dmax [2] [%]	DC50 [2] [nM]	EC50 [3] [nM]	Structure (SMILES)
< 10	≥ 75	10 to 50	316 to 3160	Cc1nc2cc(COC(=O)Nc3nc(C(C)(C)C)no3)ccc2cc1C1CCC(=O)NC1=O (stereo not drawn) [Compound 80, (3-(2,6-dioxopiperidin-3-yl)-2-methylquinolin-7-yl)methyl (3-(tert-butyl)-1,2,4-oxadiazol-5-yl)carbamate]
< 10	≥ 75	< 10	< 316	Cc1nc2cc(COC(=O)Nc3cc(C4(C(F)(F)F)CC4)no3)ccc2cc1C1CCC(=O)NC1=O (stereo not drawn) [Compound 81, (3-(2,6-dioxopiperidin-3-yl)-2-methylquinolin-7-yl)methyl (3-(1-(trifluoromethyl)cyclopropyl)isoxazol-5-yl)carbamate]
< 10	≥ 75	< 10	< 316	[2H]C([2H])(OC(=O)Nc1cc(C(C)(C)C)no1)c1ccc2cc(C3CCC(=O)NC3=O)c(C)nc2c1 (stereo not drawn) [Compound 82, (3-(2,6-dioxopiperidin-3-yl)-2-methylquinolin-7-yl)methyl-d2 (3-(tert-butyl)isoxazol-5-yl)carbamate]
